Measurements as given in the OligoGym collection.
Where “and” joins values, the source holds several entries; their conditions need not be identical. Equal values may be shown once. After the bases stand the sugars from the 5' end (letter, count) and the backbone: PS all phosphorothioate, else s phosphorothioate and o phosphodiester by linkage. Methylation of C is not given here. e = 2'-O-(2-methoxyethyl) (MOE); k = constrained ethyl (cEt); d = 2'-deoxy (DNA)

Target: APOL1
Conditions: ASO

Sequence | target mRNA inhibition (A431, 2 µM) [%] | further results
AACGCAATGCTGACTT (sugars k2 d4 e3 k2 d5, PS) | 82 | 
AAGATTGGCTCTGGCT (sugars k3 d4 k3 e1 d5, PS) | 35 | 
AAGATTGGCTCTGGCT (sugars kkdddddkekeddddd, PS) | 65 | 
AAGATTGGCTCTGGCT (sugars kkddddkekekkdddd, PS) | 2 | 
AAGATTGGCTCTGGCT (sugars kkkddddkekekdddd, PS) | 23 | 
AAGTATTGCCAGCTAA (sugars k3 d4 k3 e1 d5, PS) | 49 | 
AAGTATTGCCAGCTAA (sugars kkdddddkekeddddd, PS) | 73 | 
AAGTGCAACCAATCAA (sugars k4 d9 k3, PS) |  | target mRNA inhibition (A431, 0.0625 µM): 36%; target mRNA inhibition (A431, 0.25 µM): 63%; target mRNA inhibition (A431, 1 µM): 83%
AATGAACGCAATGCTG (sugars k4 d9 k3, PS) |  | target mRNA inhibition (A431, 0.0625 µM): 35%; target mRNA inhibition (A431, 0.25 µM): 50%; target mRNA inhibition (A431, 1 µM): 75%
AATGTTTGCATTTGGG (sugars k4 d9 k3, PS) |  | target mRNA inhibition (A431, 0.0625 µM): 95%; target mRNA inhibition (A431, 0.25 µM): 99% and 97%; target mRNA inhibition (A431, 1 µM): 100% and 98%
AATTCTATTAGAGGGC (sugars k3 d4 k3 e1 d5, PS) | 70 | 
AATTCTATTAGAGGGC (sugars kkkddddkekekdddd, PS) | 41 | 
ACACATCATTGGGTTA (sugars kkkddddkekeddddd, PS) | 58 | 
ACACATCATTGGGTTA (sugars kkkddddkekekdddd, PS) | 32 | 
ACAGCATTGAGTACAA (sugars k4 d9 k3, PS) |  | target mRNA inhibition (A431, 0.0625 µM): 44%; target mRNA inhibition (A431, 0.25 µM): 78%; target mRNA inhibition (A431, 1 µM): 90%
ACGCAATGCTGACTTG (sugars k3 d4 k3 e1 d5, PS) | 88 | 
ACGCAATGCTGACTTG (sugars kekddddeekkddddd, PS) | 91 | 

Sequence | target mRNA inhibition (A431, 2 µM) [%] | further results
ACGCAATGCTGACTTG (sugars kkddddekekeddddd, PS) | 92 | target mRNA inhibition (A431, 0.0156 µM): 6%; target mRNA inhibition (A431, 0.0625 µM): 23%; target mRNA inhibition (A431, 0.25 µM): 59%; target mRNA inhibition (A431, 1 µM): 80%
ACGCAATGCTGACTTG (sugars kkddddkekekddddd, PS) | 79 | 
ACGCAATGCTGACTTG (sugars kkkddddkdkdkdddd, PS) | 70 | 
ACTTTATACCAGTGTC (sugars k2 d4 e3 k2 d5, PS) | 91 | 
AGCATCAAAAACCTGG (sugars k4 d9 k3, PS) |  | target mRNA inhibition (A431, 0.0625 µM): 66%; target mRNA inhibition (A431, 0.25 µM): 81%; target mRNA inhibition (A431, 1 µM): 89%
AGCTTTAAACTCAGGT (sugars kkkddddkekekdddd, PS) | 64 | 
AGGTTGTCCAGAGCTT (sugars k4 d9 k3, PS) |  | target mRNA inhibition (A431, 0.0625 µM): 51%; target mRNA inhibition (A431, 0.25 µM): 60%; target mRNA inhibition (A431, 1 µM): 69%
AGTATTGCCAGCTAAG (sugars k4 d9 k3, PS) |  | target mRNA inhibition (A431, 0.0625 µM): 63%; target mRNA inhibition (A431, 0.25 µM): 89%; target mRNA inhibition (A431, 1 µM): 97%
AGTATTGCCAGCTAAG (sugars kkdddddkekeddddd, PS) | 86 | 
AGTATTGCCAGCTAAG (sugars kkddddekekeddddd, PS) | 78 | 
AGTATTGCCAGCTAAG (sugars kkddddkekekddddd, PS) | 65 | 
AGTATTGCCAGCTAAG (sugars kkddddkekekkdddd, PS) | 34 | 
AGTATTGCCAGCTAAG (sugars kkkddddkekekdddd, PS) | 66 | 
AGTATTGTTTTTGTGG (sugars k2 d4 e4 k2 d4, PS) | 85 | 
AGTATTGTTTTTGTGG (sugars k3 d4 k3 e1 d5, PS) | 89 | 
AGTATTGTTTTTGTGG (sugars kkddddkekekkdddd, PS) | 66 | 
AGTTTTGTAAGTGCAA (sugars kkkddddkekekdddd, PS) | 77 | 
